Experimental findings from ChEMBL document CHEMBL1143501, “Structure-activity relationship of the novel bivalent and C-terminal modified analogues of endomorphin-2” (Bioorg Med Chem Lett, 2005) are described below.

pIC50, pKi: −log10 of the molar value. Starred links: 1 amine or outer side, 2 acyl side, 3 side chain; linkers in the order of their positions; H or OH if unused. Positions of bridges follow the written chain, without caps; N, C: chain ends. Residues, ends and D or L forms follow the SMILES beside them. Chains are numbered I, II in the order given. Ethylenediamine = C(CN[*:2])N[*:1] A value given as a limit tells only on which side of the number the result lay.

The nature of experiment [1]: Selectivity for Opioid receptor mu 1 to that of Opioid receptor delta 1.
Experiment [2] deals with Mu-type opioid receptor (Cavia porcellus, UniProt P97266). The experiment can be described thus: In vitro inhibitory concentration against Opioid receptor mu 1 was measured using guinea pig ileum assay. Format: tissue-based.
Chain of Mu-type opioid receptor (P97266 whole entry): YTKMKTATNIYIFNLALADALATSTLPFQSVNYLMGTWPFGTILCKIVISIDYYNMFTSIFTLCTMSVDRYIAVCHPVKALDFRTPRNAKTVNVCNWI
Experiment [3] can be described thus: Mean value of binding constant for Opioid receptors assayed with [3H]DAMGO.
Experiment [4] in a line: Mean value of binding constant for Opioid receptors assayed with [3H]DPDPE.
Experiment [5] addresses Delta-type opioid receptor (Mus musculus) (UniProt P32300). In words: In vitro potency of EM-2 measured towards Opioid receptor delta 1 using mouse vas deferens assay. Format: functional, tissue-based.
For experiment [6] the target is unchanged. In words: Ratio of IC50s against Opioid receptor delta 1 was measured in mouse vas deferens to that of guinea pig ileum. It counts as tissue-based.
Experiment [7] concerns the target Mu-type opioid receptor (Cavia porcellus) (UniProt P97266). In words: In vitro potency of EM-2 was measured towards Opioid receptor mu 1 using guinea pig ileum assay. Format: tissue-based.
Experiment [8] has the same target. In words: Relative potency of EM-2 measured towards Opioid receptor mu 1 assayed with [3H]DAMGO.
Experiment [9] has as its target Delta-type opioid receptor (Mus musculus, UniProt P32300). The experiment can be described thus: In vitro inhibitory concentration against Opioid receptor delta 1 was measured using mouse vas deferens assay.
Experiment [10] has as its target Delta-type opioid receptor (Mus musculus) (UniProt P32300). In words: Relative potency of EM-2 measured towards Opioid receptor delta 1 assayed with [3H]DPDPE.

Chain of Delta-type opioid receptor (Mus musculus) (P32300 whole entry): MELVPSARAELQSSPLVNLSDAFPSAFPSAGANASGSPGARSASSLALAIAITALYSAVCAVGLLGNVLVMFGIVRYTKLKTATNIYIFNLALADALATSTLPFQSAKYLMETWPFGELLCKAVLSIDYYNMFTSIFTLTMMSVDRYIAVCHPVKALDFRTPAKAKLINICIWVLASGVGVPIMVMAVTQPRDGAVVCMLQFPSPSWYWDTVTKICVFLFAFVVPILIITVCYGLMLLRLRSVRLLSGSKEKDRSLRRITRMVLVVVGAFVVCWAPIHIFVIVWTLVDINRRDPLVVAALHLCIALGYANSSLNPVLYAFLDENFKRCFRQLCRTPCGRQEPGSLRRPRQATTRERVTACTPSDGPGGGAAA
Chain of Delta-type opioid receptor (P32300 whole entry): as above
Chain of Mu-type opioid receptor (Cavia porcellus) (P97266 whole entry): as the sequence (P97266 whole entry) above

In [1], `COC(=O)[C@H](Cc1ccccc1)NC(=O)[C@H](Cc1ccccc1)NC(=O)[C@@H]1CCCN1C(=O)[C@@H](N)Cc1ccc(O)cc1` returned a Selectivity of over 1110. Moreover, the pIC50 in [2] is 7.38; in experiment [9], 7.43. Further, the negative-log Ki (pKi) is 8.04 in [3] and under 5.00 in experiment [4]. In addition, the Relative potency was 1.3 in [5], 0.35 in experiment [7] and 0.91 in experiment [8]. In addition, in [6], the Ratio was found to be 0.88.

Regarding `N[C@@H](Cc1ccc(O)cc1)C(=O)N1CCC[C@H]1C(=O)N[C@@H](Cc1ccccc1)C(=O)N[C@@H](Cc1ccccc1)C(=O)NNC(=O)[C@H](Cc1ccccc1)NC(=O)[C@H](Cc1ccccc1)NC(=O)[C@@H]1CCCN1C(=O)[C@@H](N)Cc1ccc(O)cc1`, the negative logarithm of the IC50 (pIC50) in experiment [2] was 6.29; in experiment [9] it was 6.14. Also, the negative-log Ki (pKi) in experiment [3] is 7.02; in experiment [4], 6.27.

As for `N[C@@H](Cc1ccc(O)cc1)C(=O)N1CCC[C@H]1C(=O)N[C@@H](Cc1ccccc1)C(=O)NNC(=O)[C@H](Cc1ccccc1)NC(=O)[C@@H]1CCCN1C(=O)[C@@H](N)Cc1ccc(O)cc1`, the pIC50 in experiment [2] was 5.95; in experiment [9] it was 5.49. The negative logarithm of the Ki (pKi) in experiment [3] is 7.51; in experiment [4], 5.72.

Regarding `N[C@@H](Cc1ccc(O)cc1)C(=O)N1CCC[C@H]1C(=O)N[C@@H](Cc1ccccc1)C(=O)N[C@@H](Cc1ccccc1)C(=O)NCCNC(=O)[C@H](Cc1ccccc1)NC(=O)[C@H](Cc1ccccc1)NC(=O)[C@@H]1CCCN1C(=O)[C@@H](N)Cc1ccc(O)cc1`, the values for the pIC50 in experiment [2] and in [9] were 5.45 and 7.54, respectively. The values for the negative logarithm of the Ki (pKi) in [3] and in [4] were 7.06 and 6.21, respectively.

As for `N[C@@H](Cc1ccc(O)cc1)C(=O)N1CCC[C@H]1C(=O)N[C@@H](Cc1ccccc1)C(=O)NCCNC(=O)[C@H](Cc1ccccc1)NC(=O)[C@@H]1CCCN1C(=O)[C@@H](N)Cc1ccc(O)cc1` (I: H-Tyr-Pro-Phe / II: H-Tyr-Pro-Phe; linker I:C-II:C via Ethylenediamine), the negative logarithm of the IC50 (pIC50) was 6.66 in experiment [2] and 5.99 in experiment [9]. For the same molecule, the negative-log Ki (pKi) is 7.58 in experiment [3] and 6.03 in experiment [4].

Molecule `NC(=O)[C@H](Cc1ccccc1)NC(=O)[C@@H]1CCCN1C(=O)[C@@H](N)Cc1ccc(O)cc1` (H-Tyr-Pro-Phe-NH2) came in with a Selectivity in [1] of over 71.4. The pKi in [3] is 6.85; in experiment [4], under 5.00. In experiment [8], this molecule came in with a Relative potency of 0.059.

Consider `N[C@@H](Cc1ccc(O)cc1)C(=O)N1CCC[C@H]1C(=O)N[C@@H](Cc1ccccc1)C(=O)N[C@@H](Cc1ccccc1)C(=O)NCCCCNC(=O)[C@H](Cc1ccccc1)NC(=O)[C@H](Cc1ccccc1)NC(=O)[C@@H]1CCCN1C(=O)[C@@H](N)Cc1ccc(O)cc1`, for which the negative-log Ki (pKi) in [3] was 6.77; in [4], 5.15. In addition, the pIC50 in [9] is under 5.00.

Molecule H-YPFYPF-NH2 showed a Selectivity in experiment [1] of 61.8. For the same molecule, the Relative potency in [5] was found to be 0.015; in [7] it was 0.013; in experiment [10], 4.41; in experiment [8], 0.27. For the same molecule, the Ratio in experiment [6] is 2.82.

Turning to `NC(=O)[C@H](Cc1ccccc1)NC(=O)[C@@H]1CCCN1C(=O)[C@H](Cc1ccc(O)cc1)NCCC(=O)[C@H](Cc1ccccc1)NC(=O)[C@@H]1CCCN1C(=O)[C@@H](N)Cc1ccc(O)cc1`, the Selectivity in [1] came out at 35.4. The Relative potency stood at 0.048 in [5], 0.067 in experiment [7], 9.06 in [10] and 0.32 in experiment [8]. In experiment [6], the Ratio is 4.64.

In the case of `NNC(=O)[C@H](Cc1ccccc1)NC(=O)[C@H](Cc1ccccc1)NC(=O)[C@@H]1CCCN1C(=O)[C@@H](N)Cc1ccc(O)cc1`, the Selectivity in experiment [1] is over 1070. Besides, the values for the pIC50 in experiment [2] and in experiment [9] were 6.88 and 6.73, respectively. Moreover, the figures for the negative-log Ki (pKi) in [3] and in [4] were 8.03 and under 5.00, respectively. Also, the figures for the Relative potency in experiment [5], in experiment [7] and in experiment [8] were 0.26, 0.11 and 0.88, respectively. In addition, the Ratio in experiment [6] is 1.4.

The term pIC50 denotes the IC50 on a negative log10 scale, so that one unit is a factor of ten. Read a high pIC50 as a low IC50. What is called pKi is −log10 of the Ki, conventionally taken in molar units.
